Results from publication PMC10959927, “Platinum iodido drugs show potential anti-tumor activity, affecting cancer cell metabolism and inducing ROS and senescence in gastrointestinal cancer cells” (Communications Biology, 2024).
Where “and” joins values, the source holds several entries; their conditions need not be identical. Identical values can stand only once.

Legend:
Format in all cases: cell-based, human
[1] = test system: telomeres, 36B4, MT-COX1, MT-CYB DNA of MKN45 cells; experiment: Oxidized bases (FPG-sensitive lesions) in genome regions by qPCR; conditions: MKN45, IC50 concentration 24 h, normalized to control, single replicates
From the text: (§1) Total cellular DNA from MKN45 and PANC1 cells was extracted using an NZY Tissue gDNA Isolation Kit (Nzytech, MB13503) following the manufacturer’s instructions and quantified using a Nanodrop (Nanodrop Spectrophotometer ND-1000, ThermoFisher Scientific, Wilmington, DE, USA). We adapted the procedure described by O’Callaghan et al.[76] to measure oxidative DNA damage at telomeres, 36B4 genomic region and at mitochondrial DNA (MT-COX1, MT-CYB). This is a qPCR method based on differences in PCR kinetics between DNA template digested by Formamidopyrimidine DNA Glycosylase (FPG, Cat no. M0240S) and undigested DNA. This enzyme recognizes and cuts 8-oxoguanine, producing apurinic sites that are converted into single-strand breaks by its apurinic sites lyase activity. These single-strand breaks inhibit the PCR, thus, the ΔCT after digesting DNA by […] (Ct digested–Ct undigested) is proportional to the oxidative damage in the amplified region. DNA was incubated with 8 Units of FPG during 3 h in FPG buffer (NEB1, M0240S). The reaction was stopped by incubation at 95 °C for 5 min. qPCR analysis was performed on 40 ng of digested or undigested genomic DNA. Each qPCR was performed in triplicate including no-template controls in a StepOne Real‐time PCR System (Applied Biosystems, 4376357). Target genes (Table 3) were amplified using SYBR Green (Applied Biosystems, MB345). Thermal cycling of the qPCR reaction was initiated with a denaturation step at 95 °C for 10 min. The process consisted of 40 cycles (denaturation at 95 °C for 15 sec, annealing at 60 °C for 30 sec, and elongation at 72 °C for 30 sec). This experiment was repeated three independent times with 10–12 replicates.

[2] = test system: telomeres, 36B4, MT-COX1, MT-CYB DNA of PANC1 cells; experiment: as above; conditions: PANC1, IC50 concentration 24 h, normalized to control, single replicates
From the text: as §1

AGS cells [3] = experiment: Immunofluorescence of γ-H2AX and 53BP1 foci; conditions: for foci/cell, share of cells in class (Suma 100) / foci/cell, number of cells in class: Fig. 3B; for foci/cell, number of cells in class: cell count
Experimental: (§2) Cells (7 × 10^4) were seeded on 20 mm coverslips. […] Coverslips were incubated for 1 h with the primary antibody (Cell Signaling: H2AX Ser139 (#2595) and 53BP1 (#4937)) at room temperature, followed by a 1 h incubation with the appropriate secondary antibody. DNA was stained with DAPI. Fluorescence microscopy was performed using a NIKON Eclipse 90i. The image analysis was performed using the software program Nikon NIS-Elements and Image J.

PANC1 cells [4] = experiment: Immunofluorescence of γ-H2AX and 53BP1 foci; conditions: for foci/cell, share of cells in class (Suma 100) / foci/cell, number of cells in class: PANC1, Fig. 3B; for foci/cell, number of cells in class: cell count
Experimental: as §2

AGS cells [5] = experiment: SA-β-Gal activity, CellEvent Senescence Green flow cytometry;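 also: IC50 concentration of each compound relative to untreated control set as 1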; conditions: Fig. 3A, replicate values
Experimental: (§3) SA-β-Gal activity was measured following two different approaches. (i) AGS, MKN45 and PANC1 cells (5 × 10^4) were seeded in 24-multiwell dishes and incubated overnight. […] For flow cytometry cell senescence detection, cells were tripsinized, fixed for 15 min with PFA 4% and stained with the CellEvent Senescense Green Flow Cytometry Assay Kit (C10840, Invitrogen) according to manufacturer’s instructions. CellEvent Senescense Green Probe was used at a 1:500 dilution and fluorescence was detected using the filter (Ex488nm/Em530/30) BL1 with a 4-laser Attune NxT Acoustic Cytometer (Thermo Fisher Scientific). […] After 3 h, the treatments were removed, new supplemented medium was added, and cells were incubated for an additional 24 h. Finally, SA-β-Gal staining was performed using the Senescence Cells Histochemical Staining Kit (CS0030-1KT) according to the manufacturer’s instructions.

MKN45 cells [6] = experiment: as above; conditions: Fig. 3A, replicate values
Experimental: as §3

PANC1 cells [7] = experiment: as above; conditions: Fig. 3A, replicate values
Experimental: as §3

PANC1 cells [8] = experiment: Clonogenic (CFU) assay after 1, 3, 24 h pre-treatment
Experimental: (§4) For the clonogenic assay we used two different approaches. […] Then, cells were cultured in a 6-well plate at a very low concentration (2 × 10^3 cells per well) and incubated for 10 days. […] To evaluate the role of ROS in cell proliferation, we supplemented the growth medium with 0.5 mM NAC. After 10 days, the cells were fixed with 1% glutaraldehyde and stained with 0.1% crystal violet. The number of colonies was quantified directly and reflected as CFUs: Colony Forming Units.

AGS cells [9] = experiment: Clonogenic (CFU) assay with or without NAC; conditions: IC50 concentration, 10 days
Experimental: as §4

MKN45 cells [10] = experiment: Clonogenic (CFU) assay with or without NAC; conditions: 10 days
Experimental: as §4
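For Fold change % Senescence in this document: IC50 concentration of each compound relative to untreated control set as 1.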

## [NH2][Pt]([NH2])([Cl])[Cl] [CDDP, cisplatin, reference compound]
[1]; FPG-digested vs undigested
  TEL (Fold change - ΔCt TEL), oxidative DNA damage: 2.134 and 3.241 and 3.532 and 0.2864 and 0.7917 and 1.101 and 0.9693 and 0.9768 and 0.981 and 0.9672
[1]
  36B4 (Fold change - ΔCt 36B4), oxidative DNA damage: 0.8255 and 0.8326 and 1.095 and 1.237 and 1.611 and 1.72 and 2.271 and 2.214 and 1.327 and 2.203
  MT-COX1 (Fold change - ΔCt MT-COX1), oxidative DNA damage: 1.028 and 1.042 and 1.044 and 1.141 and 0.8202 and 0.6032 and 2.316 and 2.623 and 3.028
  MT-CYB (Fold change - ΔCt MT-CYB), oxidative DNA damage: 1.38 and 1.409 and 1.605 and 1.1947 and 1.217 and 1.312 and 1.3882 and 2.275 and 1.316 and 2.313
[2]; FPG-digested vs undigested
  TEL (Fold change - ΔCt TEL), oxidative DNA damage: 4.038 and 4.138 and 5.415 and 0.6214 and 0.3967 and 0.9429 and 1.679 and 1.417 and 1.6318 and 1.586
[2]
  36B4 (Fold change - ΔCt 36B4), oxidative DNA damage: 1.144 and 1.346 and 0.8021 and 1.678 and 2.371 and 2.867 and 3.452 and 2.312 and 2.5645
  MT-COX1 (Fold change - ΔCt MT-COX1), oxidative DNA damage: 1.1557 and 1.18 and 1.253 and 1.195 and 2.153 and 0.9478 and 1.587 and 1.014 and 1.075 and 1.118
  MT-CYB (Fold change - ΔCt MT-CYB), oxidative DNA damage: 1.618 and 1.296 and 1.304 and 1.472 and 1.131 and 1.532 and 1.619 and 1.965 and 6.543 and 5.482 and 6.158 and 5.629
AGS cells [3]; class 16-30 foci/cell
  foci/cell, share of cells in class (Suma 100): 23.0769
  foci/cell, number of cells in class: 18
AGS cells [3]; class 31-45 foci/cell
  foci/cell, share of cells in class (Suma 100): 26.9231
  foci/cell, number of cells in class: 21
AGS cells [3]; class 46-60 foci/cell
  foci/cell, share of cells in class (Suma 100): 21.7949
  foci/cell, number of cells in class: 17
AGS cells [3]; class <15 foci/cell
  foci/cell, share of cells in class (Suma 100): 21.7949
  foci/cell, number of cells in class: 17
AGS cells [3]; class >61 foci/cell
  foci/cell, share of cells in class (Suma 100): 6.41
  foci/cell, number of cells in class: 5
AGS cells [3]; Fig. S4B, cell counts
  foci/cell: number of cells with 16-30 foci: 35
  foci/cell: number of cells with 31-45 foci: 15
  foci/cell: number of cells with 46-60 foci: 5
  foci/cell: number of cells with <15 foci: 45
  foci/cell: number of cells with >61 foci: 4
AGS cells [3]; Fig. S4B, share of N
  foci/cell: share of cells with 16-30 foci (Suma 100): 33.6538
  foci/cell: share of cells with 31-45 foci (Suma 100): 14.4231
  foci/cell: share of cells with 46-60 foci (Suma 100): 4.808
  foci/cell: share of cells with <15 foci (Suma 100): 43.2692
  foci/cell: share of cells with >61 foci (Suma 100): 3.846
PANC1 cells [4]; PANC1, Fig. S4B, cell counts
  foci/cell: number of cells with 16-30 foci: 32
  foci/cell: number of cells with 31-45 foci: 36
  foci/cell: number of cells with 46-60 foci: 25
  foci/cell: number of cells with <15 foci: 21
  foci/cell: number of cells with >61 foci: 22
PANC1 cells [4]; PANC1, Fig. S4B, share of N
  foci/cell: share of cells with 16-30 foci (Suma 100): 23.5294
  foci/cell: share of cells with 31-45 foci (Suma 100): 26.4706
  foci/cell: share of cells with 46-60 foci (Suma 100): 18.3824
  foci/cell: share of cells with <15 foci (Suma 100): 15.4412
  foci/cell: share of cells with >61 foci (Suma 100): 16.1765
PANC1 cells [4]; class 16-30 foci/cell
  foci/cell, share of cells in class (Suma 100): 10
  foci/cell, number of cells in class: 11
PANC1 cells [4]; class 31-45 foci/cell
  foci/cell, share of cells in class (Suma 100): 23.6364
  foci/cell, number of cells in class: 26
PANC1 cells [4]; class 46-60 foci/cell
  foci/cell, share of cells in class (Suma 100): 20
  foci/cell, number of cells in class: 22
PANC1 cells [4]; class <15 foci/cell
  foci/cell, share of cells in class (Suma 100): 6.364
  foci/cell, number of cells in class: 7
PANC1 cells [4]; class >61 foci/cell
  foci/cell, share of cells in class (Suma 100): 40
  foci/cell, number of cells in class: 44
AGS cells [5]
  Fold change % Senescence: 1.16 fold change and 1.15 fold change and 1.2 fold change
MKN45 cells [6]
  Fold change % Senescence: 1.67 fold change and 1.92 fold change and 1.87 fold change
PANC1 cells [7]
  Fold change % Senescence: 1.64 fold change and 1.11 fold change and 1.53 fold change
PANC1 cells [8]; PANC1, 1 h pre-treatment at IC50, colonies after 10 days
  CFUs: 160 and 132 and 144
PANC1 cells [8]; PANC1, 3 h pre-treatment at IC50, colonies after 10 days
  CFUs: 20 and 28 and 36
AGS cells [9]; AGS + NAC 0.5 mM
  colonies (CFUs), mean ± SD: 0.7 ± 0.6
AGS cells [9]; AGS, no NAC
  colonies (CFUs), mean ± SD: 0
MKN45 cells [10]; MKN45 + NAC 0.5 mM, IC50 concentration
  colonies (CFUs), mean ± SD: 1 ± 1.4
MKN45 cells [10]; MKN45, IC50 concentration, no NAC
  colonies (CFUs), mean ± SD: 1 ± 1
